Columns and labels:
mock-infected MT-4 cells [1] = test: Test A: cytotoxicity in mock-infected MT-4 cells (MTT); format: cell-based
Experimental: (§1) A rapid, sensitive and automated assay procedure was used for the in vitro evaluation of anti-HIV agents. An […] T4-cell line, MT-4, which was previously shown (Koyanagi et al., Int. J. Cancer, 36, 445-451, 1985) to be highly susceptible to and permissive for HIV infection, served as the target cell line. Inhibition of the HIV-induced cytopathic effect was used as the end point. The viability of both HIV- and mock-infected cells was assessed spectrophotometrically via the in situ reduction of 3-(4,5-dimethylthiazol-2-yl)-2,5-diphenyltetrazolium bromide (MTT). […] The percent protection achieved by the compound in HTV-infected cells was calculated by the following formula:
(§2) [formula] whereby (ODT)HIV is the optical density measured with a given concentration of the test compound in HIV-infected cells; (ODC)HIV is the optical density measured for the control unteated HIV-infected cells; (ODC)MOCK is the optical density measured for the control untreated mock-infected cells; all optical density values were determined at 540 nm. […] The ratio of CC50 to IC50 was defined as the selectivity index (SI).

HIV [2] = test: Test A: inhibition of the HIV-induced cytopathic effect in MT-4 cells (MTT); format: cell-based; conditions: Test A; MT-4 cells, MTT; pIC50 = −log IC50, dose achieving 50% protection
Experimental: as §1, §2

HIV [3] = test: Test B: HIV infection measured fluorometrically in MT-4 cells engineered with GFP (HIV-specific promotor); format: cell-based; conditions: Human immunodeficiency virus 1, MT4
Experimental: (§3) An […] T4-cell line, MT-4, which was previously shown (Koyanagi et al., Int. J. Cancer, 36, 445-451, 1985) to be highly susceptible to and permissive for HIV infection, served as the target cell line. In these cells, engineered with GFP (and an HIV-specific promotor), ongoing HIV-infection was measured fluorometrically. Cytotoxicity is measured in the same cells, but engineered with GFP under a constitutional promoter. The infection (or inhibition thereof) of HIV infected cells and the flourescence of mock-infected cells is assessed by the fluorescent GFP signal generated by the two above mentioned cell lines.

[4] = Test B: cytotoxicity in mock-infected MT-4 cells engineered with GFP under a constitutional promoter; format: cell-based; conditions: human
Experimental: as §3

mock-infected MT-4 cells [5] = test: as above; format: cell-based
Experimental: as §3

Row | Structure (SMILES) | PCC50 (mock-infected MT-4 cells [5]) | further results
1 | COc1cc(CCC#N)cc(OC)c1Nc1nc(Nc2ccc(C#N)cc2)nnc1C [Compound 40] | – | PCC50 (mock-infected MT-4 cells [1]): 5.0; pIC50 (M) (HIV [2]): 8.6 M
2 | Cc1cc(OCC#N)cc(C)c1Nc1cnnc(Nc2ccc(C#N)cc2)n1 [Compound 41] | – | PCC50 (mock-infected MT-4 cells [1]): <4.6; pIC50 (M) (HIV [2]): 7.6 M
3 | CC(C#N)=Cc1cc(C)c(Nc2nc(Nc3ccc(C#N)cc3)nnc2C)c(C)c1 [Compound 42] | – | PCC50 (mock-infected MT-4 cells [1]): 4.8; pIC50 (M) (HIV [2]): 9.1 M
4 | CCOc1cc(C)c(Nc2cnnc(Nc3ccc(C#N)cc3)n2)c(C)c1 [Compound 43] | – | PCC50 (mock-infected MT-4 cells [1]): <4.6; pIC50 (M) (HIV [2]): 8.1 M
5 | Cc1cc(C)c(Nc2nnc(Cl)c(Nc3ccc(C#N)cc3)n2)c(C)c1 [Compound 45] | – | PCC50 (mock-infected MT-4 cells [1]): <4.6; pIC50 (M) (HIV [2]): 7.6 M
6 | Cc1cc(C)c(Sc2nc(Nc3ccc(C#N)cc3)nnc2Cl)c(C)c1 [Compound 46] | – | PCC50 (mock-infected MT-4 cells [1]; Test A, mock-infected MT-4 cells, MTT, 50% cytotoxic concentration (CC50 in M)): <4.6; pIC50 (M) (HIV [2]): 7.9 M
7 | Cc1cc(/C=C/C(=O)N2CCOCC2)cc(C)c1Oc1nc(Nc2ccc(C#N)cc2)nnc1C [Compound 47] | – | PCC50 (mock-infected MT-4 cells [1]): <4.6; pIC50 (M) (HIV [2]): 8.1 M
8 | Cc1cc(/C=C/C(N)=O)cc(C)c1Oc1nc(Nc2ccc(C#N)cc2)nnc1C [Compound 48] | – | IC50 (HIV [3]): 0.000631 µM; CC50 [4]: 25.1 µM
9 | Cc1cc(/C=C/C(=O)N(C)C)cc(C)c1Oc1nc(Nc2ccc(C#N)cc2)nnc1C [Compound 50] | 4.7 | –
10 | CCNC(=O)c1cc(C)c(Nc2cnnc(Nc3ccc(C#N)cc3)n2)c(C)c1 [Compound 51] | 5.1 | –
11 | Cc1cc(C(=O)N(C)C)cc(C)c1Nc1cnnc(Nc2ccc(C#N)cc2)n1 [Compound 52] | <4.6 | –
12 | Cc1cc(C=CC#N)cc(C)c1Nc1nnc(Cl)c(Nc2ccc(C#N)cc2)n1 [Compound 53] | 4.9 | –
13 | Cc1cc(/C=C/C#N)cc(C)c1Nc1nc(Nc2ccc(C#N)cc2)nnc1Cl [Compound 54] | 4.9 | –
14 | CNC(=O)/C=C/c1cc(C)c(Oc2nc(Nc3ccc(C#N)cc3)nnc2C)c(C)c1 [Compound 56] | 4.8 | –
15 | CCN(C)C(=O)/C=C/c1cc(C)c(Oc2nc(Nc3ccc(C#N)cc3)nnc2C)c(C)c1 [Compound 57] | 4.7 | –
16 | Cc1cc(/C=C/C(N)=O)cc(C)c1Nc1nc(Nc2ccc(C#N)cc2)nnc1C [Compound 58] | – | IC50 (HIV [3]): 0.251 µM; CC50 [4]: 10 µM

Row | Structure (SMILES) | PCC50 (mock-infected MT-4 cells [5]) | further results
17 | COc1cc(/C=C/C#N)cc(C)c1Nc1nc(Nc2ccc(C#N)cc2)nnc1C [Compound 60] | 6.0 | –
18 | C/C(=C\C#N)c1cc(Cl)c(Nc2nc(Nc3ccc(C#N)cc3)nnc2C)c(Cl)c1 [Compound 61] | 5.4 | –
19 | N#C/C=C/c1cc(F)c(Nc2nnc(Cl)c(Nc3ccc(C#N)cc3)n2)c(F)c1 [Compound 62] | – | IC50 (HIV [3]): 0.00316 µM; melting point: 276 to 277 °C; CC50 [4]: 25.1 µM
20 | N#Cc1ccc(Nc2cnnc(Nc3c(F)cc(I)cc3F)n2)cc1 [Compound 63] | 4.9 | –
21 | COc1cc(C)c(Nc2nnc(Cl)c(Nc3ccc(C#N)cc3)n2)c(C)c1 [Compound 64] | 4.7 | –
22 | Cc1cc(/C=C/C#N)cc(Cl)c1Nc1nc(Nc2ccc(C#N)cc2)nnc1C [Compound 65] | 5.3 | –
23 | COc1cc(C(C)=CC#N)cc(C)c1Nc1nc(Nc2ccc(C#N)cc2)nnc1C [Compound 66] | 5.7 | –
24 | COc1cc(/C(C)=C/C#N)cc(OC)c1Nc1nc(Nc2ccc(C#N)cc2)nnc1C [Compound 67] | 4.9 | –
25 | COc1cc(/C(C)=C/C#N)cc(Cl)c1Nc1nc(Nc2ccc(C#N)cc2)nnc1C [Compound 68] | 5.2 | –
26 | C/C(=C\C#N)c1cc(C)c(Nc2nc(Nc3ccc(C#N)cc3)nnc2C)c(Cl)c1 [Compound 69] | 5.7 | –
27 | COc1cc(/C=C/C#N)cc(Cl)c1Nc1nc(Nc2ccc(C#N)cc2)nnc1C [Compound 70] | 6.2 | –
28 | COc1cc(C=C(C)C#N)cc(C)c1Nc1nc(Nc2ccc(C#N)cc2)nnc1C [Compound 71] | 5.1 | –
29 | N#CCCc1cc(Br)c(Nc2nnc(Cl)c(Nc3ccc(C#N)cc3)n2)c(Br)c1 [Compound 73] | <4.6 | –
30 | N#C/C=C/c1cc(Cl)c(Nc2nnc(Cl)c(Nc3ccc(C#N)cc3)n2)c(Cl)c1 [Compound 76] | <4.6 | –
31 | N#C/C=C/c1cc(Cl)c(Nc2nnc(Cl)c(Nc3ccc(C#N)cc3)n2)c(Br)c1 [Compound 77] | 5.0 | –

— US7585861B2, “HIV inhibiting 1,2,4-triazines” (Janssen Pharmaceutica, N.V., priority 2003, dated 2009)
